In brackets after ≈: the same amount, converted by molar mass.
Experiments:
human GPBAR1 = target: T1, human GPBAR1 (Homo sapiens, UniProt Q8TDU6); experiment: GPBAR1-mediated transactivation, CRE-luciferase reporter in HEK-293T cells; format: cell-based; settings: for GPBAR1 (% of activity compared to 10 µM TLCA): compound at 10 microM, TLCA = 100%
T1 construct: expressed in transfected cells; host or cells: HEK-293T
T1 sequence (Q8TDU6 1-330): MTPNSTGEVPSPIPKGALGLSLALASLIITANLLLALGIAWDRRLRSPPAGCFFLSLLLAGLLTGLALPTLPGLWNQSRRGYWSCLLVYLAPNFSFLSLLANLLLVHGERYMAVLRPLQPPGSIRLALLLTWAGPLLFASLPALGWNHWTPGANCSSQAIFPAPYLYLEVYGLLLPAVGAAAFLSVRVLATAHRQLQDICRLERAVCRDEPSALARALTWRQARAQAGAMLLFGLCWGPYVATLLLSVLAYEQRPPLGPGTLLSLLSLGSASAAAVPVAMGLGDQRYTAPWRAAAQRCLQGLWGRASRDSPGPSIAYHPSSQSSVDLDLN
Procedure: (§1) In this table, the activities of the compounds are compared with specific reference compounds, namely CDCA for FXR, TLCA for TGR5/GPBAR1, MK571 for CysLT1R. Each compound is tested at a concentration of 10 microM and the activity of the reference compounds is considered to be 100%.
In another experimental set, 24 hours after transfection, the cells were stimulated with 50 µM of the derivatives CHIN in combination with 10 µM of CDCA or TLCA.
(§2) Eighteen hours after stimulation, the cell lysates were used to assess Luciferase and Renilla activity by means of the Dual-Luciferase Reporter assay (E1980, Promega Madison WI). The luminescence was measured using the Glomax 20/20 luminometer (Promega, Madison WI) and the Luciferase activity was normalised with the Renilla activity.

FXR [1] = target: T2, FXR (Homo sapiens, UniProt Q96RI1); experiment: FXR-mediated transactivation, luciferase reporter in HepG2 cells; format: cell-based; settings: dose-response 0.1-75 µM, read-out: FXR ECso
T2 construct: expressed in transfected cells; host or cells: HepG2
T2 sequence (Q96RI1 1-486): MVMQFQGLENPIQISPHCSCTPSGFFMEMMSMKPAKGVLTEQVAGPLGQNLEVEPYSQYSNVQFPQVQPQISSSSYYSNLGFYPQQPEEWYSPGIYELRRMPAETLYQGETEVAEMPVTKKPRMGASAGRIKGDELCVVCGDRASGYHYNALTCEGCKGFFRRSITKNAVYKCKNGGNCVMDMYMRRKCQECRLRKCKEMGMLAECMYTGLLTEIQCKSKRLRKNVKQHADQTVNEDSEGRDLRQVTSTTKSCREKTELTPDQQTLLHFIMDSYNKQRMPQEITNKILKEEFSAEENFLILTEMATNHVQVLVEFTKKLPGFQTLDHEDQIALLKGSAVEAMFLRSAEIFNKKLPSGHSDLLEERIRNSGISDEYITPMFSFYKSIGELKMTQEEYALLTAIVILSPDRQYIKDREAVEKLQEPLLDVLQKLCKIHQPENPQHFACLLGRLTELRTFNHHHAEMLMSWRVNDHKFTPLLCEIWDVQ
T2 sequence (P19793 1-462 partner): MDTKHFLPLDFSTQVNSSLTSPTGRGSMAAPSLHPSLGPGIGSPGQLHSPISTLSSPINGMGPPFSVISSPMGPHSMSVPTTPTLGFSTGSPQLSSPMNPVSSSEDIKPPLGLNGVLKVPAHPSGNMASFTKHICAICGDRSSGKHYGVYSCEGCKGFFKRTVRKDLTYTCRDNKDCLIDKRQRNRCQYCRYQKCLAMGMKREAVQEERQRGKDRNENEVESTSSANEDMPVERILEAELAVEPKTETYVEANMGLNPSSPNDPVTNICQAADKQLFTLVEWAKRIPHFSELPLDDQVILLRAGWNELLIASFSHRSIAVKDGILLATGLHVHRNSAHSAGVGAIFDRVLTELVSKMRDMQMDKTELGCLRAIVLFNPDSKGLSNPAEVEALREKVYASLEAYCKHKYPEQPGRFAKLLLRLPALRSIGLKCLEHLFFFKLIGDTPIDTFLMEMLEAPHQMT

FXR [2] = target: T2, FXR; experiment: as above; format: cell-based; settings: compound at 10 microM, CDCA = 100%
Procedure: as §1
For FXR-mediated transactivation, the HepG2 cells were transfected with 200 ng of the p(hsp27)-TK-LUC reporter vector containing the FXR response element (IR1) cloned from the heat shock protein 27 (hsp27) promoter, 100 ng of pSG5-FXR, 100 ng of pSG5-RXR and 100 of pGL4.70 (Promega, Madison WI), a vector encoding for the human Renilla gene. […]
as §2

CysLT1R = target: T3, CysLT1R (Homo sapiens, UniProt Q9Y271); experiment: CysLT1R antagonistic activity assay (Ca2+ fluorescence, 0.1 nM LTD4; Eurofins Cerep-Panlabs); format: cell-based; settings: for IC50: antagonism of 0.1 nM LTD4, read-out: CysLTR1 ICso; for inhibition at 10 µM: read-out: CysLTR1 (% of inhibition compared to the compound MK571)
T3 construct: Eurofins Cerep-Panlabs (France)
T3 sequence (Q9Y271 1-337): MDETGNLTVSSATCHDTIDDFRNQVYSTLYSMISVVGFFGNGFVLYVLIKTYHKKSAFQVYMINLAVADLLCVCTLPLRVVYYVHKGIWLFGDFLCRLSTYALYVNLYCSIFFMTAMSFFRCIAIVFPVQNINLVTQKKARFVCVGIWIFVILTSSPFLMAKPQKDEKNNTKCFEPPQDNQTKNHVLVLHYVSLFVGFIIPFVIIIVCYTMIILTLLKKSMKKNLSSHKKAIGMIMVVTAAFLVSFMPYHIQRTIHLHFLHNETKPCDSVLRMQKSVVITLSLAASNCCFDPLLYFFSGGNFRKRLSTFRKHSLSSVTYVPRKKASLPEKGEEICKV
Procedure: as §1
The antagonistic activity assay was performed by Eurofins Cerep-Panlabs (France). […] The plates are then placed in a microplate reader (CellLux, PerkinElmer), which is used to add the compounds to be tested or the HBSS buffer and then after 5 min with a 0.1 nM LTD4 or HBSS buffer solution (used as control). The change in intensity and fluorescence that varies in proportion to the concentration of free Ca^2+ ion in the cytosol is measured.

Aqueous solubility = format: physicochemical; settings: pH 7.4
male C57BL/6 mice = experiment: HFD-F diet murine model of NAFLD/NASH; format: in vivo; settings: 30 mg/kg daily from day 7
Procedure: CHIN117 and the efficacy thereof in a murine model of chronic hepatitis induced by a high-fat diet are of particular interest. This murine model simulates NAFLD, which represents a rapidly growing epidemic in industrialised countries and has a very high cost for the health care system. In this model, the mice (male C57BL/6 mice) were fed a diet rich in lipids and cholesterol (2% cholesterol) and added fructose (3%) in water (HFD-F) for 60 days. CHIN117 was administered daily at a dose of 30 mg/kg starting on day 7. […] After eight weeks, the mice develop insulin resistance, as shown by the OGTT results (FIGS. 4E, F).
In addition, HFD-F indicates an increase in body mass index (BMI) and weight of the white adipose tissue of the epididymis (eWAT), of the brown adipose tissue (BAT) and of the liver (FIGS. 5C-I).

wild-type C57/B16 mice = experiment: Acetaminophen (APAP)-induced acute hepatitis in mice; format: in vivo; settings: APAP 500 mg/kg oral gavage; 30 mg/kg orally 45 min after induction; 24 hours
Procedure: CHIN117 and the effect thereof in reducing acetaminophen-induced liver damage (APAP) are of particular interest. In the experimental set, acute hepatitis was induced in wild-type C57/B16 mice by administration of acetaminophen (APAP) at a concentration of 500 mg/kg via oral gavage. 45 minutes after induction of the disease, CHIN117 was administered at a concentration of 30 mg/kg orally. The mice were sacrificed 24 hours after induction of the disease and blood was taken and analysed for blood count and AST and ALT transaminase values.
The administration of the compound CHIN117 was able to alleviate the APAP-induced liver damage by reducing AST and ALT values by about 10-fold if compared to those recorded in the group of mice treated with APAP alone.

S9 fraction = experiment: Metabolic stability in vitro, S9 fraction; format: in vitro ADME; settings: also phase II enzymes
[3] = compound at 10 microM, MK571 = 100%, 0.1 nM LTD4

Row | SMILES | GPBAR1 (% of activity compared to 10 µM TLCA) (human GPBAR1) [%] | FXR (% of activity compared to 10 µM CDCA) (FXR [2]) [%] | inhibition at 10 µM (CysLT1R; [3]) [%] | other results
1 | CC(C)Oc1cccc(OCc2ccc3ccccc3n2)c1 [CHIN111, 2-((3-isopropoxyphenoxy)methyl)quinoline] | – | – | 79 | –
2 | CCC(C)COc1cccc(OCc2ccc3ccccc3n2)c1 (stereo not shown) [CHIN114, 2-((3-(2-methylbutoxy)phenoxy)methyl)quinoline] | – | – | 15 | –
3 | O=C(O)c1cccc(-c2ccc(OCc3ccc4ccccc4n3)cc2)c1 [CHIN117, 4′-(quinolin-2-ylmethoxy)-[1,1′-biphenyl]-3-carboxylic Acid] | 82 | 8.9 | 109 | EC50 (human GPBAR1; dose-response 0.1-75 µM, read-out: GPBAR1 ECso): 4.6 µM; aqueous solubility (Aqueous solubility): 66 µM (≈ 23.5 µg/mL); reduction of weight gain (male C57BL/6 mice; HFD-F diet 60 days): about 3 grams; hepatic steatosis, BMI and eWAT, BAT and liver weight (male C57BL/6 mice; HFD-F diet for 8 weeks): almost completely reversed the disease; AUC of OGTT (male C57BL/6 mice; HFD-F diet, after eight weeks): reduces the AUC of OGTT; ALT levels (male C57BL/6 mice; plasma, HFD-F diet): statistically reduces; AST levels (male C57BL/6 mice; plasma, HFD-F diet): statistically reduces; LDL levels (male C57BL/6 mice; plasma, HFD-F diet): statistically reduces; circulating white blood cell (WBC) values (wild-type C57/B16 mice): comparable to those found in untreated mice; reduction of ALT values compared to mice treated with APAP alone (wild-type C57/B16 mice): about 10 fold; reduction of AST values compared to mice treated with APAP alone (wild-type C57/B16 mice): about 10 fold; CLint S9 fraction (S9 fraction): 6; IC50 (CysLT1R): 5.67 µM
4 | OCc1cccc(-c2ccc(OCc3ccc4ccccc4n3)cc2)c1 [CHIN118] | – | – | – | CysLTR1 (% of inhibition compared to the compound MK571) (CysLT1R; [3]): 59%
5 | O=C(O)c1ccc(-c2ccc(OCc3ccc4ccccc4n3)cc2)cc1 [CHIN120, 4′-(quinolin-2-ylmethoxy)-[1,1′-biphenyl]-4-carboxylic Acid] | 36.74 | 12.76 | 43 | –
6 | OCc1cccc(-c2ccc(OCc3ccc4ccccc4n3)cc2)c1 [CHIN121, (4′-(quinolin-2-ylmethoxy)-[1,1′-biphenyl]-3-yl)methanol] | 64.9 | 8.22 | – | –

Further lines, with some results ahead:

Row | GPBAR1 (% of activity compared to 10 µM TLCA) (human GPBAR1) [%] | FXR (% of activity compared to 10 µM CDCA) (FXR [2]) [%] | inhibition at 10 µM (CysLT1R; [3]) [%] | SMILES | other results
7 | 23 | 32.46 | – | COC(=O)c1cccc(OCc2ccc3ccccc3n2)c1 [CHIN104, Methyl 3-(Quinolin-2-ylmethoxy)Benzoate] | EC50 (FXR [1]): 9 µM
8 | 17.58 | 12.78 | 59 | COC(=O)c1cc(O)cc(OCc2ccc3ccccc3n2)c1 [CHIN107, methyl 3-hydroxy-5-(quinolin-2-ylmethoxy)benzoate] | IC50 (CysLT1R): > 10 µM
9 | – | 8.22 | – | O=C(O)c1cc(O)cc(OCc2ccc3ccccc3n2)c1 [CHIN108, 3-hydroxy-5-(quinolin-2-ylmethoxy)benzoic Acid] | –
10 | – | 5.92 | 26 | OCc1cc(O)cc(OCc2ccc3ccccc3n2)c1 [CHIN109, 3-(hydroxymethyl) -5-(quinolin-2-ylmethoxy)phenol] | –
11 | 56.91 | 11.14 | 21 | COC(=O)c1cccc(-c2ccc(OCc3ccc4ccccc4n3)cc2)c1 [CHIN116, Methyl 4′-(quinolin-2-ylmethoxy)-[1,1′-biphenyl]-3-carboxylate] | –
12 | 13.5 | 6.83 | 13 | COC(=O)c1ccc(-c2ccc(OCc3ccc4ccccc4n3)cc2)cc1 [CHIN119, Methyl 4′-(quinolin-2-ylmethoxy)-[1,1′-biphenyl]-4-carboxylate] | –

— US20230357159A1, “QUINOLINE COMPOUNDS AS SELECTIVE AND/OR DUAL MODULATORS OF BILE ACID RECEPTORS AND LEUKOTRIENE CYSTEINYL RECEPTORS” (PRECISION BIO-THERAPEUTICS S.R.L., priority 2020, published 2023)
